Assay results reported in patent US8946142B2, “Beta-arrestin effectors and compositions and methods of use thereof” (Trevena, Inc., priority 2012, dated 2015).
Where a SMILES comes first, the peptide text is derived from it. [ ]: non-standard residue; d: D form. The star is where a group is joined. Ac6c = NC1(C(=O)O)CCCCC1; Ac5c = NC1(C(=O)O)CCCC1; NHiPr = CC(C)N*; Sar = CNCC(=O)O

Experiments:
Type in all cases: cell-based
[1] = target: T1, human AT1R (Homo sapiens, UniProt P30556); assay: IP1 accumulation assay (IP1 G-protein assay), human AT1R; conditions: for Emax: read-out: Span (relative to hAngII)
T1 sequence (P30556 1-359): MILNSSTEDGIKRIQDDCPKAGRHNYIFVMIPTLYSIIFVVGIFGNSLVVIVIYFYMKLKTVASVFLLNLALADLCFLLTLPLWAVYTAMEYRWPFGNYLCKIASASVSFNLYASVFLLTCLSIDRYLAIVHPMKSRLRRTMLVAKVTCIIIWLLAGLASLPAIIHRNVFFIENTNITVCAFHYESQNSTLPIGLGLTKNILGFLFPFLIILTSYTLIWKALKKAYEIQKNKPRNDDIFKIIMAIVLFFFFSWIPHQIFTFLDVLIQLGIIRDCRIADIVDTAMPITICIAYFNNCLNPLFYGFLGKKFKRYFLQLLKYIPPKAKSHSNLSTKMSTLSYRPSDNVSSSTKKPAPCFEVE
Experimental: (§1) A secondary measure of G protein coupling efficacy was also performed. IP3 is generated by activation of phospholipase C by Gα-q. IP3 is degraded to IP1, which can be forced to accumulate in cells by blocking degradation with lithium chloride. Thus we measured accumulation of IP1 to determine ligand efficacy for G protein activation.
(§2) IP1 accumulation generated by human and rat angiotensin 2 type 1 receptor (human AT1R and rat AT1aR, respectively) was measured with IP-One Tb kits purchased from Cisbio and used per the manufacturer's instructions. Clonal stably transfected cell lines expressing human AT1TR or rat AT1aR were used for all experiments.
(§3) For assays, 4,000-8,000 cells were seeded per well in 384-well small-volume microplates “HiBase” small-volume plate in volumes of 20 uL and allowed to grow overnight at 37° C. in 5% CO2. Cell growth media was then replaced with stimulation buffer supplied by Cisbio containing 50 mM lithium chloride. […] For agonist detection, peptides were then further diluted in stimulation buffer to add peptide to the cells to reach final concentrations ranging from 100 uM to 1 pM. Following addition of peptides, cells were incubated at 37° C. in 5% CO2 for 30 minutes and then lysed with 4 uL of pre-mixed HTRF IP-One reagents diluted per manufacturer's instructions (Cisbio). Microplates were incubated for 60-90 minutes at room temperature and then time-resolved fluorescence intensities were measured using a PHERAstar Plus microplate reader from BMG Labtech. IP1 accumulation was measured as change in ratio of time-resolved fluorescent intensities measured at 665 nm and 620 nm.

[2] = target: T2, rat AT1aR (Rattus norvegicus, UniProt P25095); assay: beta-arrestin2 recruitment assay (PathHunter), rat AT1aR; conditions: for Emax: 1 h, read-out: Span (relative to hAngII)
T2 sequence (P25095 1-359): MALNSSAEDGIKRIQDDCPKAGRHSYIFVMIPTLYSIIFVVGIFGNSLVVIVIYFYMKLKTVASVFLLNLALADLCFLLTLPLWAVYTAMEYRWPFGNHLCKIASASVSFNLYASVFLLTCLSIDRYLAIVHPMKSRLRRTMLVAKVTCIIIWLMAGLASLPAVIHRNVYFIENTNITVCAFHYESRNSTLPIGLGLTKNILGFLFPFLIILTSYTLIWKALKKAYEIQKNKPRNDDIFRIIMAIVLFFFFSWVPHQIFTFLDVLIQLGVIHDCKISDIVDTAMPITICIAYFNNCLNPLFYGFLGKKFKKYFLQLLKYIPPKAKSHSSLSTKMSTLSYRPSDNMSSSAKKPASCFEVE
Experimental: (§4) The proximal event in β-arrestin function mediated by GPCRs is recruitment to receptors following ligand binding and receptor phosphorylation by GRK's. Thus, the measure of β-arrestin recruitment was used to determine ligand efficacy for β-arrestin function.
(§5) B-arrestin-2 recruitment to the human and rat angiotensin 2 type 1 receptor (human AT1R and rat AT1aR, respectively) was measured with the PathHunter™ μl-arrestin assay (DiscoveRx Corporation, Fremont Calif.). Cells, plasmid(s), and detection reagent(s) were purchased from DiscoveRx, and assays were performed per manufacturer's instructions. Human AT1R and rat AT1aR were cloned into the pCMV-ProLink vector, verified by sequencing, and transfected into PathHunter β-arrestin HEK293 cells. Stably transfected clonal cell lines were selected with Hygromycin and G418. These clonal cell lines were used for all experiments.
(§6) For assays, 4,000-8,000 cells were seeded per well in 384-well microplates “HiBase” small-volume plate in volumes of 20 uL and grown overnight in the incubator (37° C., 5% CO2, saturated humidity). Peptides were dissolved in DMSO to a concentration of 10 mM. Peptides were then further diluted in assay buffer (Hank's balanced salt solution with 20 mM HEPES) to add peptide to the cells to reach final concentrations ranging from 100 μM to 1 pM. Cells were then incubated for 60 minutes at 37° C. in 5% CO2, followed by addition of 2 μL of PathHunter Detection Reagent to each well. The microplates were then incubated at room temperature for 60 minutes, and then luminescence was measured using a PHERAstar Plus microplate reader from BMG Labtech. B-arrestin-2 recruitment to receptors was measured as relative luminescence intensity expressed in arbitrary units.

[3] = target: T2, rat AT1aR; assay: IP1 accumulation assay (IP1 G-protein assay), rat AT1aR; conditions: for Emax: read-out: Span (relative to hAngII)
Experimental: as §1, §2, §3

[4] = target: T1, human AT1R; assay: beta-arrestin2 recruitment assay (PathHunter), human AT1R; conditions: for Emax: 1 h, read-out: Span (relative to hAngII)
Experimental: as §4, §5, §6

Structure (SMILES)	EC50 ([1]; read-out: EC50) [nM]	Emax [1] [%]	EC50 ([1]; read-out: pEC50 (converted)) [nM]	Emax [2] [%]	EC50 ([2]; read-out: EC50) [nM]	EC50 ([2]; read-out: pEC50 (converted)) [nM]	EC50 ([3]; read-out: EC50) [nM]	Emax [3] [%]	EC50 ([3]; read-out: pEC50 (converted)) [nM]	Emax [4] [%]	EC50 ([4]; read-out: EC50) [nM]	EC50 ([4]; read-out: pEC50 (converted)) [nM]	EC50 (nM) [2]	pEC50 [2]
CNCC(=O)N[C@@H](CCCNC(=N)N)C(=O)N[C@H](C(=O)N[C@@H](Cc1ccc(O)cc1)C(=O)NC1(C(=O)N[C@@H](Cc2c[nH]cn2)C(=O)N2CCC[C@H]2C(=O)N[C@@H](Cc2ccc(O)cc2)C(=O)O)CCCCC1)C(C)C [SEQ ID NO: 55, Sar-Arg-Val-Tyr-cyHex-His-Pro-Tyr] (H-[Sar]RVY[Ac6c]HPY-OH)	> 1.3	< 103	> 0.631	< 105	> 3.2	> 3.16	> 0.6	< 104	> 0.631	< 101	> 3.2	> 3.16		
CNCC(=O)N[C@@H](CCCNC(=N)N)C(=O)N[C@H](C(=O)N[C@@H](Cc1ccc(O)cc1)C(=O)NC1(C(=O)N[C@@H](Cc2c[nH]cn2)C(=O)N2CCC[C@H]2C(=O)N[C@H](C(=O)O)[C@@H](C)O)CCCC1)C(C)C [SEQ ID NO: 21, Sar-Arg-Val-Tyr-cyPen-His-Pro-Thr] (H-[Sar]RVY[Ac5c]HPT-OH)	> 1.3		> 0.631	< 105	> 3.2	> 3.16	> 0.6	< 104	> 0.631	< 101	> 3.2	> 3.16		
CNCC(=O)N[C@@H](CCCNC(=N)N)C(=O)N[C@H](C(=O)N[C@@H](Cc1ccc(O)cc1)C(=O)N1CCC[C@H]1C(=O)N[C@@H](Cc1c[nH]cn1)C(=O)N1CCC[C@H]1C(=O)N[C@@H](C)C(=O)O)C(C)C [SEQ ID NO: 1, Sar-Arg-Val-Tyr-Pro-His-Pro-Ala] (H-[Sar]RVYPHPA-OH)	> 10000		> 0.631	< 105	> 3.2	> 3.16	> 0.6	< 104	> 0.631	< 101	> 3.2	> 3.16		
CNCC(=O)N[C@@H](CCCNC(=N)N)C(=O)N[C@H](C(=O)N[C@@H](Cc1ccc(O)cc1)C(=O)NC1(C(=O)N[C@@H](Cc2c[nH]cn2)C(=O)N2CCC[C@H]2C(=O)N[C@@H](CO)C(=O)O)CCCCC1)C(C)C [SEQ ID NO: 15, Sar-Arg-Val-Tyr-cyHex-His-Pro-Ser] (H-[Sar]RVY[Ac6c]HPS-OH)	> 1.3		> 0.631	< 105	> 3.2	> 3.16	> 0.6	< 104	> 0.631	< 101	> 3.2	> 3.16		
CNCC(=O)N[C@@H](CCCNC(=N)N)C(=O)N[C@H](C(=O)N[C@@H](Cc1ccc(O)cc1)C(=O)N1CCC[C@H]1C(=O)N[C@@H](Cc1c[nH]cn1)C(=O)N1CCC[C@H]1C(=O)N[C@@H](Cc1ccccc1)C(=O)O)C(C)C [SEQ ID NO: 10, Sar-Arg-Val-Tyr-Pro-His-Pro-Phe] (H-[Sar]RVYPHPF-OH; N-terminus and C-terminus assumed)		< 103		> 105				< 104		< 101				
CNCC(=O)N[C@@H](CCCNC(=N)N)C(=O)N[C@H](C(=O)N[C@@H](Cc1ccc(O)cc1)C(=O)NC1(C(=O)N[C@@H](Cc2c[nH]cn2)C(=O)N2CCC[C@H]2C(=O)N[C@H](C(=O)O)C(C)C)CCCC1)C(C)C [SEQ ID NO: 20, Sar-Arg-Val-Tyr-cyPen-His-Pro-Val] (H-[Sar]RVY[Ac5c]HPV-OH)	> 1.3	< 103	> 0.631	< 105	> 3.2	> 3.16	> 0.6	< 104	> 0.631	< 101	> 3.2	> 3.16		
CNCC(=O)N[C@@H](CCCNC(=N)N)C(=O)N[C@H](C(=O)N[C@@H](Cc1ccc(O)cc1)C(=O)NC1(C(=O)N[C@@H](Cc2c[nH]cn2)C(=O)N2CCC[C@H]2C(=O)N[C@@H](CC(=O)O)C(=O)O)CCCCC1)C(C)C [SEQ ID NO: 44, Sar-Arg-Val-Tyr-cyHex-His-Pro-Asp] (H-[Sar]RVY[Ac6c]HPD-OH)				< 105	> 3.2	> 3.16	> 0.6	< 104	> 0.631	< 101	> 3.2	> 3.16		
CCCCc1nc(Cl)c(CO)n1Cc1ccc(-c2ccccc2-c2nn[nH]n2)cc1 [losartan, reference compound]								< 104					Inactive	Inactive
CNCC(=O)N[C@@H](CCCNC(=N)N)C(=O)N[C@H](C(=O)N[C@@H](Cc1ccc(O)cc1)C(=O)NC1(C(=O)N[C@@H](Cc2c[nH]cn2)C(=O)N2CCC[C@H]2C(=O)N[C@@H](Cc2c[nH]cn2)C(=O)O)CCCCC1)C(C)C [SEQ ID NO: 37, Sar-Arg-Val-Tyr-cyHex-His-Pro-His] (H-[Sar]RVY[Ac6c]HPH-OH)				< 105	> 3.2	> 3.16	> 0.6	< 104	> 0.631	< 101	> 3.2	> 3.16		
CNCC(=O)N[C@@H](CCCNC(=N)N)C(=O)N[C@H](C(=O)N[C@@H](Cc1ccc(O)cc1)C(=O)NC1(C(=O)N[C@@H](Cc2c[nH]cn2)C(=O)N2CCC[C@H]2C(=O)NC(C)C)CCCCC1)C(C)C [SEQ ID NO: 46, Sar-Arg-Val-Tyr-cyHex-His-Pro-NH-i-Pr] (H-[Sar]RVY[Ac6c]HP-NHiPr)	> 1.3	< 103	> 0.631	< 105	> 3.2	> 3.16				< 101	> 3.2	> 3.16		
